For data set [1], the system named is MRSA ATCC BAA-44. Nature of the data set: Minimum re-sensitizing concentration (MRC) in the presence of cefazolin. The format is cell-based, Staphylococcus aureus. As to conditions: MRSA BAA-44, cefazolin. The procedure:
(§1) RMA activity of the analogues was tested by assessing their abilities to sensitize MRSA to the antibiotic cefazolin (a first-generation cephalosporin). The well characterized strain MRSA ATCC BAA-44 was tested as previously described. […] The minimal inhibitory concentration (MIC), or the lowest concentration at which S. aureus is considered susceptible to an antibacterial, was determined by the standard broth microdilution method detailed in the CLSI handbook. RMA activity was compared by the ratio of MIC/MRC. The half growth inhibitory concentration (GI50) of each analogue against HeLa cells was determined as previously described. […] The luminescence of each sample was recorded in an Envision Multilabel Plate Reader (Perkin Elmer). Results of MICs and MRCs were confirmed by testing in triplicate. The GI50 assay was performed in duplicate.

The subject of data set [2] is HeLa cells. Nature of the data set: GI50 against HeLa cells, Cell Titer Glo viability assay. It is filed as cell-based, human. To be noted: 24 h. On the procedure: as §1
Background: Cellular ATP, detected with luciferase, serves as a proxy for viable cell number.

Data set [3] has as its system MRSA ATCC BAA-44. Nature of the data set: Minimal inhibitory concentration (MIC), standard broth microdilution. The format is cell-based, Staphylococcus aureus. To be noted: for MIC: Staphylococcus aureus, MRSA BAA-44 strain, read-out: MIC; for concentration that inhibited the growth of MRSA BAA-44 on average (antibiotic controls): antibiotic alone; for MIC (in words): MRSA BAA-44. On the procedure: as §1
Background: In broth dilution the organism is exposed to a series of concentrations in liquid medium.

In brackets after ≈: the same amount, converted by molar mass. Several values for one entry are separate records, joined by “and”; a condition that tells them apart may be missing. Equal values may be shown once. Some results are limits rather than exact numbers.

Turning to `CN(C)C(=O)C1CN(c2nc3ccc(Cl)cc3s2)Cc2[nH]c3ccc(Cl)cc3c21` (racemic) [Compound 9, 6-Chloro-2-(6-chlorobenzo[d]thiazol-2-yl)-N,N-dimethyl-2,3,4,9-tetrahydro-1H-pyrido[3,4-b]indole-4-carboxamide], the “RMA activity (in words)” value in data set [1] is on record as “significantly decreased or abolished the RMA activity”. On to `OCC1CN(c2nc3ccc(Cl)cc3s2)Cc2[nH]c3ccc(Cl)cc3c21` (racemic) [Compound 10, (6-Chloro-2-(6-chlorobenzo[d]thiazol-2-yl)-2,3,4,9-tetrahydro-1H-pyrido[3,4-b]indol-4-yl)methanol], for which, in data set [2], the GI50 (commonly the concentration that inhibits growth by half) is 10.8 µg/mL (≈ 26.7 µM). Turning to `COCOCC1CN(c2nc3ccc(Cl)cc3s2)Cc2[nH]c3ccc(Cl)cc3c21` (racemic) [Compound 11, 6-Chloro-2-(6-chloro-4-((methoxymethoxy)methyl)-1,3,4,9-tetrahydro-2H-pyrido[3,4-b]indol-2-yl)benzo[d]thiazole], in data set [2], the GI50 turned out to be 7.0 µg/mL (≈ 15.6 µM). On the same count and under the same terms, then `Cl.NCCSCC1CN(c2nc3ccc(Cl)cc3s2)Cc2[nH]c3ccc(Cl)cc3c21` (racemic) [Compound 12a, 2-(((6-Chloro-2-(6-chlorobenzo[d]thiazol-2-yl)-2,3,4,9-tetrahydro-1H-pyrido[3,4-b]indol-4-yl)methyl)thio)ethan-1-amine hydrochloride], with 3.8 µg/mL; and `NCC1CN(c2nc3ccc(Cl)cc3s2)Cc2[nH]c3ccc(Cl)cc3c21` (racemic) [Compound 12b, (6-Chloro-2-(6-chlorobenzo[d]thiazol-2-yl)-2,3,4,9-tetrahydro-1H-pyrido[3,4-b]indol-4-yl)methanamine], with 1.5 µg/mL (≈ 3.72 µM).

For `CN(C)CC1CN(c2nc3ccc(Cl)cc3s2)Cc2[nH]c3ccc(Cl)cc3c21` (racemic) [Compound 12c, 1-(6-Chloro-2-(6-chlorobenzo[d]thiazol-2-yl)-2,3,4,9-tetrahydro-1H-pyrido[3,4-b]indol-4-yl)-N,N-Dimethylmethanamine], the MIC (in general, the lowest concentration found to suppress growth) in data set [3] worked out at 2 µg/mL (≈ 4.64 µM). For the same molecule, the GI50 in data set [2] worked out at 5.2 µg/mL (≈ 12.1 µM). With `C[N+](C)(C)CC1CN(c2nc3ccc(Cl)cc3s2)Cc2[nH]c3ccc(Cl)cc3c21.[I-]` (racemic) [Compound 12d, 1-(6-Chloro-2-(6-chlorobenzo[d]thiazol-2-yl)-2,3,4,9-tetrahydro-1H-pyrido[3,4-b]indol-4-yl)-N,N,N-trimethylmethanaminium iodide], in data set [3], the MIC amounted to 8 µg/mL. Molecule `NCCNCC1CN(c2nc3ccc(Cl)cc3s2)Cc2[nH]c3ccc(Cl)cc3c21` (racemic) [Compound 12e, N1-((6-chloro-2-(6-chlorobenzo[d]thiazol-2-yl)-2,3,4,9-tetrahydro-1H-pyrido[3,4-b]indol-4-yl)methyl)ethane-1,2-diamine] returned a GI50 in data set [2] of 2.4 µg/mL (≈ 5.38 µM). As for `N=CNCC1CN(c2nc3ccc(Cl)cc3s2)Cc2[nH]c3ccc(Cl)cc3c21` (racemic) [Compound 12f, N-((6-chloro-2-(6-chlorobenzo[d]thiazol-2-yl)-2,3,4,9-tetrahydro-1H-pyrido[3,4-b]indol-4-yl)methyl)formimidamide], the MIC in data set [3] amounted to 4 µg/mL (≈ 9.29 µM). Further, the concentration for 50% growth inhibition (GI50) in data set [2] was found to be 3.8 µg/mL (≈ 8.83 µM). Consider `Cc1nnc(SCC2=C(C(=O)O)N3C(=O)[C@@H](NC(=O)Cn4cnnn4)[C@H]3SC2)s1` [Cefazolin, reference compound], for which, in data set [3], the “concentration that inhibited the growth of MRSA BAA-44 on average (antibiotic controls)” value is 128 µg/mL and 256 µg/mL. The same measure, in the same setting: with `CO/N=C(\C(=O)N[C@@H]1C(=O)N2C(C(=O)O)=C(COC(N)=O)CS[C@H]12)c1ccco1` [Cefuroxime, reference compound] the figure was 128 µg/mL and 256 µg/mL. With `Oc1cc(Cl)c2nc(N3CCc4c([nH]c5ccc(Cl)cc45)C3)sc2c1` [Compound 4aa, 4-Chloro-2-(6-chloro-1,3,4,9-tetrahydro-2H-pyrido[3,4-b]indol-2-yl)-1,3-benzothiazol-6-ol], the MIC in data set [3] is over 32 µg/mL. Moreover, in data set [2], the GI50 came out at 5.5 µg/mL (≈ 14.1 µM). `NCCOc1cc(Cl)c2nc(N3CCc4c([nH]c5ccc(Cl)cc45)C3)sc2c1` [Compound 4ab, 2-((4-Chloro-2-(6-chloro-1,3,4,9-tetrahydro-2H-pyrido[3,4-b]indol-2-yl)benzo[d]thiazol-6-yl)oxy)ethan-1-amine]: the MIC in data set [3] was determined as 8 µg/mL (≈ 18.5 µM). For the molecule `Clc1ccc2[nH]c3c(c2c1)CCN(c1nc2c(Cl)cc(Br)cc2s1)C3` [Compound 4ac, 2-(6-Bromo-4-chloro-1,3-benzothiazol-2-yl)-6-chloro-2,3,4,9-tetrahydro-1H-pyrido[3,4-b]indole], in data set [3], the MIC was over 32 µg/mL. The same molecule registered a GI50 in data set [2] of 22 µg/mL (≈ 48.5 µM). On to `Cl.NCC(=O)Nc1cc(Cl)c2nc(N3CCc4c([nH]c5ccc(Cl)cc45)C3)sc2c1` [Compound 4ae, 2-amino-N-(4-chloro-2-(6-chloro-1,3,4,9-tetrahydro-2H-pyrido[3,4-b]indol-2-yl)benzo[d]thiazol-6-yl)acetamide hydrochloride], for which the “MIC (in words)” value in data set [3] was “excellent MICs”. In addition, the GI50 in data set [2] came out at 14.8 µg/mL. For `FC(F)(F)c1cc(Br)cc2sc(N3CCc4c([nH]c5ccc(Cl)cc45)C3)nc12` [Compound 4ag, 2-[6-Bromo-4-(trifluoromethyl)-1,3-benzothiazol-2-yl]-6-chloro-2,3,4,9-tetrahydro-1H-pyrido[3,4-b]indole], in data set [3], the MIC was determined as 4 µg/mL (≈ 8.22 µM). In data set [2], this molecule yielded a GI50 of 5.9 µg/mL (≈ 12.1 µM). For `Cl.Nc1cc(C(F)(F)F)c2nc(N3CCc4c([nH]c5ccc(Cl)cc45)C3)sc2c1` [Compound 4ah, 2-(6-Chloro-1,3,4,9-tetrahydro-2H-pyrido[3,4-b]indol-2-yl)-4-(trifluoromethyl)-1,3-benzothiazol-6-aminium chloride], the MIC in data set [3] is 16 µg/mL. Further, the GI50 in data set [2] turned out to be 32 µg/mL.

Consider `Cl.NCCNc1cc(C(F)(F)F)c2nc(N3CCc4c([nH]c5ccc(Cl)cc45)C3)sc2c1` [Compound 4aj, N1-(2-(6-chloro-1,3,4,9-tetrahydro-2H-pyrido[3,4-b]indol-2-yl)-4-(trifluoromethyl)benzo[d]thiazol-6-yl)ethane-1,2-diamine hydrochloride], for which the “MIC (in words)” value in data set [3] is “excellent MICs”. The molecule also displayed a GI50 in data set [2] of 7.4 µg/mL.

`Clc1ccc2[nH]c3c(c2c1)CCN(c1nc2ccccc2s1)C3` [Compound 4b, 2-(1,3-Benzothiazol-2-yl)-6-chloro-2,3,4,9-tetrahydro-1H-pyrido[3,4-b]indole]: the “RMA activity (in words)” value in data set [1] is listed as “no RMA activity”. In the case of `Cc1ccc2nc(N3CCc4c([nH]c5ccc(Cl)cc45)C3)sc2c1` [Compound 4c, 6-Chloro-2-(6-methyl-1,3-benzothiazol-2-yl)-2,3,4,9-tetrahydro-1H-pyrido[3,4-b]indole], in data set [1], the “RMA activity (in words)” value is “no RMA activity”. On the same count and under the same terms, with `Clc1ccc2[nH]c3c(c2c1)CCN(c1nc2ncccc2s1)C3` [Compound 4d, 6-Chloro-2-([1,3]thiazolo[4,5-b]pyridin-2-yl)-2,3,4,9-tetrahydro-1H-pyrido[3,4-b]indole] the entry was “abolished”; with `FC(F)(F)c1cnc2nc(N3CCc4c([nH]c5ccc(Cl)cc45)C3)sc2c1` [Compound 4e, 6-Chloro-2-[6-(trifluoromethyl)[1,3]thiazolo[4,5-b]pyridin-2-yl]-2,3,4,9-tetrahydro-1H-pyrido[3,4-b]indole], “abolished”. As for `Clc1ccc2nc(N3CCc4c([nH]c5cccc(Cl)c45)C3)sc2c1` [Compound 4f, 5-Chloro-2-(6-chloro-1,3-benzothiazol-2-yl)-2,3,4,9-tetrahydro-1H-pyrido[3,4-b]indole], in data set [3], the MIC is over 16 µg/mL. On to `Clc1ccc2nc(N3CCc4c([nH]c5c(Cl)cccc45)C3)sc2c1` [Compound 4h, 8-Chloro-2-(6-chloro-1,3-benzothiazol-2-yl)-2,3,4,9-tetrahydro-1H-pyrido[3,4-b]indole], for which the MIC in data set [3] is over 16 µg/mL. The same measure, in the same setting: with `Clc1ccc2nc(N3CCc4c([nH]c5ccc(Br)cc45)C3)sc2c1` [Compound 4j, 6-Bromo-2-(6-chloro-1,3-benzothiazol-2-yl)-2,3,4,9-tetrahydro-1H-pyrido[3,4-b]indole] the figure was 4 µg/mL (≈ 9.55 µM). As to `Clc1cc(Cl)c2nc(N3CCc4c([nH]c5ccc(Cl)cc45)C3)sc2c1` [Compound 4x, 6-Chloro-2-(4,6-dichloro-1,3-benzothiazol-2-yl)-2,3,4,9-tetrahydro-1H-pyrido[3,4-b]indole], in data set [3], the “MIC (in words)” value is given as “excellent MICs” and the MIC is 2 µg/mL (≈ 4.89 µM). Further, the GI50 in data set [2] was determined as 16.1 µg/mL (≈ 39.4 µM). For `Clc1ccc2[nH]c3c(c2c1)CCN(c1nc2c(Cl)c(Cl)c(Cl)cc2s1)C3` [Compound 4y, 6-Chloro-2-(4,5,6-trichloro-1,3-benzothiazol-2-yl)-2,3,4,9-tetrahydro-1H-pyrido[3,4-b]indole] the same measures were “excellent MICs”, 2 µg/mL (≈ 4.51 µM) and 11.7 µg/mL (≈ 26.4 µM).

Regarding `S=C(Nc1ccc(Cl)cc1)N1CCc2c([nH]c3ccc(Cl)cc23)C1` [Compound 5a, 6-Chloro-N-(4-chlorophenyl)-1,3,4,9-tetrahydro-2H-pyrido[3,4-b]indole-2-carbothioamide], in data set [3], the MIC was 4 µg/mL (≈ 10.6 µM). Turning to `FC(F)(F)c1cccc(NC(=S)N2CCc3c([nH]c4ccc(Cl)cc34)C2)c1` [Compound 5c, 6-Chloro-N-[3-(trifluoromethyl)phenyl]-1,3,4,9-tetrahydro-2H-pyrido[3,4-b]indole-2-carbothioamide], the MIC in data set [3] worked out at 2 µg/mL (≈ 4.88 µM).

The values above are taken from patent US20220402914A1, “Tryptoline-Based Benzothiazoles and their use as Antibiotics and Antibiotic Resistance-Modifying Agents” (The Regents of the University of Colorado, a body corporate, priority 2019, published 2022).
